Source: patent EP4806891A1 (Kangbaida (Sichuan) Biotechnology Co., Ltd., priority 2023, dated 2025)
pIC50: −log10 of the molar value.

These compounds were tested against T1, HEK-Blue-hTLR9 cells (Homo sapiens, UniProt Q9NR96) (assay: HEK-Blue-hTLR9 cell inhibition assay). Details: ODN2006 1 µM, 16 h, OD 620 nm, read-out: TLR9 IC50.
T1 construct: expressed in transfected cells; host or cells: HEK-Blue-hTLR9 cells (HEK293-derived reporter line)
T1 sequence (Q9NR96 26-1032): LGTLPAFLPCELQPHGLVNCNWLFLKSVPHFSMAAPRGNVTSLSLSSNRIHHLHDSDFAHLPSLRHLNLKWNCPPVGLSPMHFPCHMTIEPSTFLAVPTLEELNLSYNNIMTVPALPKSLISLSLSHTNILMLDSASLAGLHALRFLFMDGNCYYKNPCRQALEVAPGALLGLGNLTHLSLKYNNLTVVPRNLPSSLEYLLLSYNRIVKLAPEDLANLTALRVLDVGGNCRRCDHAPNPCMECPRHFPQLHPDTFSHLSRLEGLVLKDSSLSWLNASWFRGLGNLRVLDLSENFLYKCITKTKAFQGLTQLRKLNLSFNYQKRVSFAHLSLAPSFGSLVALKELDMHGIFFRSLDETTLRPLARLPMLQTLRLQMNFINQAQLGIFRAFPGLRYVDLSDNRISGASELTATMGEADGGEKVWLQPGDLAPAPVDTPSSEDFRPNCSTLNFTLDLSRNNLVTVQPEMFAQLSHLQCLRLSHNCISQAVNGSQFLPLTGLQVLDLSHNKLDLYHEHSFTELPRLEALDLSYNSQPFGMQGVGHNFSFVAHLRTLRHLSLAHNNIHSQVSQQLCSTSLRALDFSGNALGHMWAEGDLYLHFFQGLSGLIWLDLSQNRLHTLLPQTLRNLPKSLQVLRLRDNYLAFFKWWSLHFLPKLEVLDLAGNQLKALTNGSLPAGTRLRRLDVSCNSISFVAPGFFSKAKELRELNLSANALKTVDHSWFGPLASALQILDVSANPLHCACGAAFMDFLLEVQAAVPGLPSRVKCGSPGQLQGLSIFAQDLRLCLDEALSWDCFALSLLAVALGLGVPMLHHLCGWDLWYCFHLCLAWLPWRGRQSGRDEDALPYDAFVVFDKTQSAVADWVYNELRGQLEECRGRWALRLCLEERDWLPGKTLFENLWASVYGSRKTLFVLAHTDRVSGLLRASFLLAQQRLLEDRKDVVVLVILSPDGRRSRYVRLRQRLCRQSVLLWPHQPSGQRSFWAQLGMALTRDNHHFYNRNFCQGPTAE
Format: cell-based
Description: HEK-Blue-hTLR7/8/9 cell inhibition assay
1. HEK-Blue-hTLR7/8 cells (1 × 10^4 cells/well) and HEK-Blue-hTLR9 cells (1.5 × 10^4 cells/well) were seeded in a 384-well cell culture plate, with a volume of 30 µL per well. The plate was incubated at 37°C in a 5% CO2 incubator for 4 h. 2. The compound was prepared with DMSO and diluted in DMEM medium to 10 concentrations (1:3 dilution), with final concentrations of 10000, 3333.3, 1111.1, 370.4, 123.5, 41.2, 13.7, 4.6, 1.5, and 0.5 nM; R848 was prepared with DMSO and diluted in DMEM medium, with final concentrations of 0.8 µM (HEK-Blue-hTLR7) and 3 µM (HEK-Blue-hTLR8); ODN2006 was prepared with endotoxin-free water and diluted in DMEM medium, with a final concentration of 1 µM. 3. Cells treated with DMSO were used as the blank control group, while cells treated solely with Resiquimod (R848) were used as the positive control group for HEK-Blue-hTLR7/8, and cells treated solely with ODN2006 were used as the positive control group for HEK-Blue-hTLR9. Cells treated with the test compound together with R848 or ODN2006 were used as the test group. Two parallel wells were set for each group and were placed at 37°C in a 5% CO2 incubator for incubation. 4. After being incubated for 4 h, the 384-well plate of HEK-Blue-hTLR7/8 was taken out from the incubator, and R848 alone or both R848 and the diluted compound were separately added into each well. The plate was placed at 37°C in a 5% CO2 incubator for incubation for 16 h; the 384-well plate of HEK-Blue-hTLR9 was taken out from the incubator, and ODN2006 alone or both ODN2006 and the diluted compound were added separately to each well. The plate was incubated at 37°C in a 5% CO2 incubator for 16 h. 5. After being incubated for 16 h, the 384-well plate was removed from the incubator and centrifuged at 1000 rpm for 1 minute. The optical density value of each well at 620 nm was measured using a multifunctional microplate reader. 6. The cell inhibition rate was calculated as (1-(OD620 test group-OD620 blank group)/(OD620 positive group-OD620 blank group))×100%, and the half maximal inhibitory concentration (IC50) was calculated through curve fitting. Table 1: Activity of the compounds of the present disclosure in HEK-Blue-hTLR7/8/9 cellular assays
With CN1CCC(c2nnc([C@]34CN(c5ccc(C(F)(F)F)n6nccc56)C[C@@]3(C(F)(F)F)C4)o2)CC1 [Compound 87, 2-(1-methylpiperidin-4-yl)-5-((1S,5R)-5-(trifluoromethyl)-3-(7-(trifluoromethyl)pyrazolo[1,5-a]pyridin-4-yl)-3-azabicyclo[3.1.0]hexan-1-yl)-1,3,4-oxadiazole] the pIC50 was < 6.00. N#Cc1ccc(N2C[C@]3(c4nnc(C56CCC(N)(CC5)CC6)o4)C[C@]3(C(F)(F)F)C2)c2cccnc12 [Compound 52, 5-((1S,5R)-1-(5-(4-aminobicyclo[2.2.2]octan-1-yl)-1,3,4-oxadiazol-2-yl)-5-(trifluoromethyl)-3-azabicyclo[3.1.0]hexan-3-yl)quinoline-8-carbonitrile] was tested, and the pIC50 was > 6.00. For FC(F)(F)Oc1ccc(N2C[C@]3(c4nnc(C5(F)CCNCC5)o4)C[C@]3(C(F)(F)F)C2)c2cccnc12 [Compound 96, 2-(4-fluoropiperidin-4-yl)-5-((1S,5R)-3-(8-(trifluoromethoxy)quinolin-5-yl)-5-(trifluoromethyl)-3-azabicyclo[3.1.0]hexan-1-yl)-1,3,4-oxadiazole], the pIC50 was < 6.00. With FC(F)(F)c1ccc(N2C[C@]3(c4nnc(C5CCN(CC6CC6)CC5)o4)C[C@]3(C(F)(F)F)C2)c2cccnc12 [Compound 76, 2-(1-(cyclopropylmethyl)piperidin-4-yl)-5-((1S,5R)-5-(trifluoromethyl)-3-(8-(trifluoromethyl)quinolin-5-yl)-3-azabicyclo[3.1.0]hexan-1-yl)-1,3,4-oxadiazole] the pIC50 was < 6.00. In the case of CN1CCC(c2nnc([C@]34CN(c5ccc(C#N)c6ncccc56)C[C@@]3(C(F)(F)F)C4)o2)CC1=O (stereo partly shown) [Compound 34], the pIC50 was < 5.00. In the case of CN1CC2(CCC(c3nnc([C@]45CN(c6ccc(C#N)c7ncccc67)C[C@@]4(C(F)(F)F)C5)o3)CC2)C1 [Compound 13, 5-((1S,5R)-1-(5-(2-methyl-2-azaspiro[3.5]nonan-7-yl)-1,3,4-oxadiazol-2-yl)-5-(trifluoromethyl)-3-azabicyclo[3.1.0]hexan-3-yl)quinoline-8-carbonitrile], the pIC50 was < 6.00. With CN1CCC(c2nnc([C@]34CN(c5ccc(C#N)n6nccc56)C[C@@]3(C(F)(F)F)C4)o2)CC1 [Compound 59, 4-((1S,5R)-1-(5-(1-methylpiperidin-4-yl)-1,3,4-oxadiazol-2-yl)-5-(trifluoromethyl)-3-azabicyclo[3.1.0]hexan-3-yl)pyrazolo[1,5-a]pyridine-7-carbonitrile] the pIC50 was < 6.00. N#Cc1ccc(N2C[C@]3(c4nnc(C5CCNCC5)o4)C[C@]3(C(F)(F)F)C2)c2c(F)cnn12 [Compound 80, 3-fluoro-4-((1S,5R)-1-(5-(piperidin-4-yl)-1,3,4-oxadiazol-2-yl)-5-(trifluoromethyl)-3-azabicyclo[3.1.0]hexan-3-yl)pyrazolo[1,5-a]pyridine-7-carbonitrile] was tested, and the pIC50 was < 6.00. For CN1CCC(c2nnc([C@]34CN(c5ccc(C#N)n6ncc(F)c56)C[C@@]3(C(F)(F)F)C4)o2)CC1 [Compound 57, 3-fluoro-4-((1S,5R)-1-(5-(1-methylpiperidin-4-yl)-1,3,4-oxadiazol-2-yl)-5-(trifluoromethyl)-3-azabicyclo[3.1.0]hexan-3-yl)pyrazolo[1,5-a]pyridine-7-carbonitrile], the pIC50 was < 6.00. CN(C)Cc1nnc([C@]23CN(c4ccc(C#N)c5ncccc45)C[C@@]2(C(F)(F)F)C3)o1 [Compound 42, 5-((1S,5R)-1-(5-((dimethylamino)methyl)-1,3,4-oxadiazol-2-yl)-5-(trifluoromethyl)-3-azabicyclo[3.1.0]hexan-3-yl)quinoline-8-carbonitrile] was tested, and the pIC50 was < 5.00. CN1CCC(Oc2nnc([C@]34CN(c5ccc(OC(F)(F)F)c6ncccc56)C[C@@]3(C(F)(F)F)C4)o2)CC1 [Compound 93, 2-((1-methylpiperidin-4-yl)oxy)-5-((1S,5R)-5-(trifluoromethyl)-3-(8-(trifluoromethoxy)quinolin-5-yl)-3-azabicyclo[3.1.0]hexan-1-yl)-1,3,4-oxadiazole] was tested, and the pIC50 was < 5.00. CN1CC2(CC(c3nnc([C@]45CN(c6ccc(C#N)c7ncccc67)C[C@@]4(C(F)(F)F)C5)o3)C2)C1 [Compound 19, 5-((1S,5R)-1-(5-(2-methyl-2-azaspiro[3.3]heptan-6-yl)-1,3,4-oxadiazol-2-yl)-5-(trifluoromethyl)-3-azabicyclo[3.1.0]hexan-3-yl)quinoline-8-carbonitrile] was tested, and the pIC50 was < 6.00. In the case of CN1[C@@H]2CC[C@H]1C[C@H](c1nnc([C@]34CN(c5ccc(C#N)c6ncccc56)C[C@@]3(C(F)(F)F)C4)o1)C2 [Compound 11, 5-((1S,5R)-1-(5-((1R,3S,5S)-8-methyl-8-azabicyclo[3.2.1]octan-3-yl)-1,3,4-oxadiazol-2-yl)-5-(trifluoromethyl)-3-azabicyclo[3.1.0]hexan-3-yl)quinoline-8-carbonitrile], the pIC50 was < 6.00. With FC(F)(F)c1ccc(N2C[C@]3(c4nnc(C5CCNCC5)o4)C[C@]3(C(F)(F)F)C2)c2cccnc12 [Compound 75, 2-(piperidin-4-yl)-5-((1S,5R)-5-(trifluoromethyl)-3-(8-(trifluoromethyl)quinolin-5-yl)-3-azabicyclo[3.1.0]hexan-1-yl)-1,3,4-oxadiazole] the pIC50 was < 6.00. With CN1CCC(Nc2nnc([C@]34CN(c5ccc(C#N)c6ncccc56)C[C@@]3(C(F)(F)F)C4)o2)CC1 [Compound 6, 5-((1S,5R)-1-(5-((1-methylpiperidin-4-yl)amino)-1,3,4-oxadiazol-2-yl)-5-(trifluoromethyl)-3-azabicyclo[3.1.0]hexan-3-yl)quinoline-8-carbonitrile] the pIC50 was < 6.00. With CN1CCC(O)(c2nnc([C@]34CN(c5ccc(C(F)(F)F)c6ncccc56)C[C@@]3(C(F)(F)F)C4)o2)CC1 [Compound 94, 1-methyl-4-(5-((1S,5R)-5-(trifluoromethyl)-3-(8-(trifluoromethyl)quinolin-5-yl)-3-azabicyclo[3.1.0]hexan-1-yl)-1,3,4-oxadiazol-2-yl)piperidin-4-ol] the pIC50 was < 6.00. With CN1CCC(c2nnc([C@]34CN(c5ccc(C#N)n6ncc(Br)c56)C[C@@]3(C(F)(F)F)C4)o2)CC1 [Compound 83, 3-bromo-4-((1S,5R)-1-(5-(1-methylpiperidin-4-yl)-1,3,4-oxadiazol-2-yl)-5-(trifluoromethyl)-3-azabicyclo[3.1.0]hexan-3-yl)pyrazolo[1,5-a]pyridine-7-carbonitrile] the pIC50 was < 6.00. In the case of CN1CC(c2nnc([C@]34CN(c5ccc(C(F)(F)F)c6ncccc56)C[C@@]3(C(F)(F)F)C4)o2)C1 [Compound 4, 2-(1-methylazetidin-3-yl)-5-((1S,5R)-5-(trifluoromethyl)-3-(8-(trifluoromethyl)quinolin-5-yl)-3-azabicyclo[3.1.0]hexan-1-yl)-1,3,4-oxadiazole], the pIC50 was < 6.00. N#Cc1ccc(N2C[C@]3(c4nnc(C#CCN5CCOCC5)o4)C[C@]3(C(F)(F)F)C2)c2cccnc12 [Compound 24, 5-((1S,5R)-1-(5-(3-morpholinoprop-1-yn-1-yl)-1,3,4-oxadiazol-2-yl)-5-(trifluoromethyl)-3-azabicyclo[3.1.0]hexan-3-yl)quinoline-8-carbonitrile] was tested, and the pIC50 was < 5.00.
